Measurements reported in EP4227307A1 (Genzyme Corporation, priority 2022, dated 2023).
Counter-ions that a name gives are not always drawn.

target: T1, human recombinant 6His-Nterm SHP2 full-length (Thr2-Arg593) (Homo sapiens, UniProt Q06124); assay: SHP2 Phosphatase Assay (DiFMUP fluorescence); type: biochemical; details: SHP2 0.2 nM pre-incubated with 100 nM bi-phosphorylated activating peptide; compound 1000-0.05 nM, 30 min pre-incubation; DiFMUP 20 µM, 45 min, room temperature; 10-concentration dose-response
T1 construct: 6His-Nterm SHP2 full-length (Thr2-Arg593, R&D system); 6His (N); purchased R&D system
T1 sequence (Q06124 2-593): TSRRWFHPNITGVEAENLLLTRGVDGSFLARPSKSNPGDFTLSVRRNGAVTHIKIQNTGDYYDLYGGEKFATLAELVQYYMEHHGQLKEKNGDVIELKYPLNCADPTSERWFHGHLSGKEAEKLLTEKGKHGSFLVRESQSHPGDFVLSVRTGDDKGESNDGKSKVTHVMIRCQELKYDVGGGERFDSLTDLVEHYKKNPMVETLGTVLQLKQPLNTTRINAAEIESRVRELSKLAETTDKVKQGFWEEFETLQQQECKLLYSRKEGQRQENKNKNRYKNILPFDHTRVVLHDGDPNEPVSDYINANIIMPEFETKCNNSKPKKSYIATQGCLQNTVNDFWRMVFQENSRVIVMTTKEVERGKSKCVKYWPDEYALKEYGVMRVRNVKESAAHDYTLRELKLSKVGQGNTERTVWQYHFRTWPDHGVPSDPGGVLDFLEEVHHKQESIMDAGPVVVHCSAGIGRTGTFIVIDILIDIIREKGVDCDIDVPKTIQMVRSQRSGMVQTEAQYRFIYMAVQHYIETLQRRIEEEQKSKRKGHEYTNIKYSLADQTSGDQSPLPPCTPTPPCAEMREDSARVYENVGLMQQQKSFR
Procedure, shortened: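 SHP2 (0.2 nM) preactivated ≥10 min with 100 nM bis-phosphorylated peptide, then 30 min with compound (10 concentrations, 1000–0.05 nM) at room temperature, pH 7.2 HEPES buffer with DTT. DiFMUP (20 µM, added solution) reacted 45 min, pervanadate-stopped; fluorescence 350/450 nm. IC50 by 4-parameter logistic fit.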

SMILES	IC50 [nM]
Cc1nc(N2CCC3(CC2)Cc2ncccc2[C@H]3N)c2ccnn2c1-c1ccc(Cl)s1 [Compound 53, (5S)-1'-[7-(5-chloro-2-thienyl)-6-methyl-pyrazolo[1,5-a]pyrazin-4-yl]spiro[5,7-dihydrocyclopenta[b]pyridine-6,4'-piperidine]-5-amine]	3
Cc1nc(N2CCC3(CC2)Cc2ncccc2[C@H]3N)c2ccnn2c1-c1cncs1 [Compound 157, (5S)-1'-(6-methyl-7-thiazol-5-yl-pyrazolo[1,5-a]pyrazin-4-yl)spiro[5,7-dihydrocyclopenta[b]pyridine-6,4'-piperidine] -5-amine hydrochloride]	72
Cc1nc(N2CCC3(CC2)Cc2ncccc2[C@H]3N)c2ccnn2c1-c1ccc2cnccc2c1 [Compound 169, (5S)-1'-[7-(6-isoquinolyl)-6-methyl-pyrazolo[1,5-a]pyrazin-4-yl]spiro[5,7-dihydrocyclopenta[b]pyridine-6,4'-piperidine]-5-amine]	16
Cc1nc(N2CCC3(CC2)Cc2ncccc2[C@H]3N)c2ccnn2c1-c1ccncc1Cl [Compound 100, (5S)-1'-[7-(3-chloro-4-pyridyl)-6-methyl-pyrazolo[1,5-a]pyrazin-4-yl]spiro[5,7-dihydrocyclopenta[b]pyridine-6,4'-piperidine]-5-amine hydrochloride]	13
Cc1nccc(-c2c(C)nc(N3CCC4(CC3)Cc3c(F)cccc3[C@H]4N)c3ccnn23)c1Cl [Compound 92, (1S)-1'-[7-(3-chloro-2-methyl-4-pyridyl)-6-methyl-pyrazolo[1,5-a]pyrazin-4-yl]-4-fluoro-spiro[indane-2,4'-piperidine]-1-amine formate]	8
Cc1nc(N2CCC3(CC2)Cc2ncc(C#N)cc2[C@H]3N)c2ccnn2c1-c1ccccc1F [Compound 209, (5S)-5-amino-1'-[7-(2-fluorophenyl)-6-methyl-pyrazolo[1,5-a]pyrazin-4-yl]spiro[5,7-dihydrocyclopenta[b]pyridine-6,4'-piperidine]-3-carbonitrile]	21
Cc1cc2c(cn1)CC1(CCN(c3nc(C)c(-c4cccc(C#N)c4F)n4nccc34)CC1)[C@@H]2N [Compound 117, 3-[4-[(5S)-5-amino-3-methyl-spiro[5,7-dihydrocyclopenta[c]pyridine-6,4'-piperidine]-1'-yl]-6-methyl-pyrazolo[1,5-a]pyrazin-7-yl]-2-fluoro-benzonitrile hydrochloride]	10
COc1cc2c(cn1)CC1(CCN(c3nc(C)c(-c4ccccc4F)n4nccc34)CC1)[C@@H]2N [Compound 131, (5S)-1'-[7-(2-fluorophenyl)-6-methyl-pyrazolo[1,5-a]pyrazin-4-yl] -3-methoxy-spiro [5,7-dihydrocyclopenta[c]pyridine-6,4'-piperidine]-5-amine]	13
Cc1nc(N2CCC3(CC2)Cc2ccncc2[C@H]3N)c2ccnn2c1-c1ccccc1F [Compound 134, (7S)-1'-[7-(2-fluorophenyl)-6-methyl-pyrazolo[1,5-a]pyrazin-4-yl]spiro[5,7-dihydrocyclopenta[c]pyridine-6,4'-piperidine]-7-amine]	4
Cc1nc(N2CCC3(CC2)Cc2ncccc2[C@H]3N)c2ccnn2c1-c1cscc1C#N [Compound 46, 4-[4-[(5S)-5-aminospiro[5,7-dihydrocyclopenta[b]pyridine-6,4'-piperidine]-1'-yl]-6-methyl-pyrazolo[1,5-a]pyrazin-7-yl]thiophene-3-carbonitrile]	73
CCn1ncc(-c2c(C)nc(N3CCC4(CC3)Cc3ccc(OC)cc3[C@H]4N)c3ccnn23)c1C [Compound 125, (1S)-1'-[7-(1-ethyl-5-methyl-pyrazol-4-yl)-6-methyl-pyrazolo[1,5-a]pyrazin-4-yl]-6-methoxy-spiro [indane-2,4'-piperidine]-1-amine hydrochloride]	9
Cc1nc(N2CCC3(CC2)Cc2c(F)cccc2[C@H]3N)c2ccnn2c1-c1ccccc1F [Compound 64, (1S)-4-Fluoro-1'-[7-(2-fluorophenyl)-6-methyl-pyrazolo[1,5-a]pyrazin-4-yl]spiro[indane-2,4'-piperidine]-1-amine hydrochloride]	46
Cc1cnccc1-c1c(C)nc(N2CCC3(CC2)Cc2ncccc2[C@H]3N)c2ccnn12 [Compound 98, (5S)-1'-[6-methyl-7-(3-methyl-4-pyridyl)pyrazolo[1,5-a]pyrazin-4-yl]spiro [5,7-dihydrocyclopenta[b]pyridine-6,4'-piperidine] -5-amine formate]	145
COc1cc2c(cn1)CC1(CCN(c3nc(C)c(-c4ccccc4)n4nccc34)CC1)[C@@H]2N [Compound 135, (5S)-3-methoxy-1'-(6-methyl-7-phenyl-pyrazolo[1,5-a]pyrazin-4-yl)spiro[5,7-dihydrocyclopenta[c]pyridine-6,4'-piperidine]-5-amine]	12
Cc1nc(N2CCC3(CC2)Cc2ncccc2[C@H]3N)c2ccnn2c1-c1ccnn1C [Compound 29, (5S)-1'-[6-methyl-7-(2-methylpyrazol-3-yl)pyrazolo[1,5-a]pyrazin-4-yl]spiro[5,7-dihydrocyclopenta[b]pyridine-6,4'-piperidine]-5-amine hydrochloride]	38
Cc1nc(N2CCC3(CC2)Cc2ncccc2[C@H]3N)c2ccnn2c1-c1ccc2nccnc2c1Cl [Compound 77, (5S)-1'-[7-(5-chloroquinoxalin-6-yl)-6-methyl-pyrazolo[1,5-a]pyrazin-4-yl]spiro[5,7-dihydrocyclopenta[b]pyridine-6,4'-piperidine]-5-amine]	4
Cc1nc(N2CCC3(CC2)Cc2c(F)cccc2[C@H]3N)c2ccnn2c1-c1cnn2ccccc12 [Compound 96, (1S)-4-fluoro-1'-(6-methyl-7-pyrazolo[1,5-a]pyridin-3-yl-pyrazolo[1,5-a]pyrazin-4-yl)spiro[indane-2,4'-piperidine]-1-amine formate]	11
Cc1nc(N2CCC3(CC2)Cc2ncccc2[C@H]3N)c2ccnn2c1-c1ccc2c(c1)OCCO2 [Compound 183, (5S)-1'-[7-(2,3-dihydro-1,4-benzodioxin-6-yl)-6-methyl-pyrazolo[1,5-a]pyrazin-4-yl]spiro[5,7-dihydrocyclopenta[b]pyridine-6,4'-piperidine]-5-amine]	3
Cc1nccc(-c2c(C)nc(N3CCC4(CC3)Oc3ncccc3[C@H]4N)c3ccnn23)c1Cl [Compound 15, (3R)-1'-[7-(3-chloro-2-methyl-4-pyridyl)-6-methyl-pyrazolo[1,5-a]pyrazin-4-yl]spiro[3H-furo[2,3-b]pyridine-2,4'-piperidine]-3-amine]	20
N[C@@H]1c2cccnc2CC12CCN(c1ncc(-c3ccc(F)c4cc[nH]c34)n3nccc13)CC2 [Compound 89, (5S)-1'-[7-(4-fluoro-1H-indol-7-yl)pyrazolo[1,5-a]pyrazin-4-yl]spiro[5,7-dihydrocyclopenta[b]pyridine-6,4'-piperidine] -5-amine hydrochloride]	9
Cc1nc(N2CCC3(CC2)Cc2ncccc2[C@H]3N)c2ccnn2c1-c1cccc(F)c1F [Compound 1, (5S)-1'-[7-(2,3-difluorophenyl)-6-methyl-pyrazolo[1,5-a]pyrazin-4-yl]spiro[5,7-dihydrocyclopenta[b]pyridine-6,4'-piperidine]-5-amine]	6
Cc1nc(N2CCC3(CC2)Cc2ncccc2[C@H]3N)c2ccnn2c1-c1ccc(F)c(F)c1 [Compound 201, (5S)-1'-[7-(3,4-difluorophenyl)-6-methyl-pyrazolo[1,5-a]pyrazin-4-yl]spiro[5,7-dihydrocyclopenta[b]pyridine-6,4'-piperidine]-5-amine]	3
COc1ccc2c(c1)[C@@H](N)C1(CCN(c3nc(C)c(-c4ccccc4F)n4nccc34)CC1)C2 [Compound 11, (1S)-1'-[7-(2-fluorophenyl)-6-methyl-pyrazolo[1,5-a]pyrazin-4yl]-6-methoxy-spiro[indane-2,4'-piperidine]-1-amine hydrochloride]	23
Cc1nc(N2CCC3(CC2)Cc2ncccc2[C@H]3N)c2c(F)cnn2c1-c1ccccc1 [Compound 143, (5S)-1'-(3-fluoro-6-methyl-7-phenyl-pyrazolo[1,5-a]pyrazin-4-yl)spiro[5,7-dihydrocyclopenta[b]pyridine-6,4'-piperidine]-5-amine hydrochloride]	39
Cc1nccc(-c2c(C)nc(N3CCC4(CC3)Cc3ccc(F)cc3[C@H]4N)c3ccnn23)c1Cl [Compound 91, (1S)-1'-[7-(3-chloro-2-methyl-4-pyridyl)-6-methyl-pyrazolo[1,5-a]pyrazin-4-yl]-6-fluoro-spiro[indane-2,4'-piperidine]-1-amine hydrochloride]	19
